Measured values from ChEMBL document CHEMBL4049384, “Synthesis and evaluation of an injectable everolimus prodrug” (Bioorg Med Chem Lett, 2017).

How the values were obtained:
[1] = Half life in Sprague-Dawley rat at 2.724 mg/kg, iv; format: ADME, organism-based; details: in vivo
Blood [2] = test: Prodrug conversion in Sprague-Dawley rat blood assessed as everolimus level at 2.724 mg/kg, iv at 4 hrs post dose by HPLC method; format: ADME, organism-based; details: in vivo
OS-RC-2 [3] = test: Antitumor activity against human OS-RC2 cells xenografted in nude mouse assessed as tumor volume at 1.5 mg/kg, iv administered three times a week measured on day 1 (reference value: 167.51 +/- 17.09 mm3); format: functional
Blood [4] = test: Prodrug conversion in Sprague-Dawley rat blood assessed as everolimus formation at 2 mg/kg, iv after 2 hrs by HPLC analysis; format: ADME, organism-based; details: in vivo
OS-RC-2 [5] = test: Antitumor activity against human OS-RC2 cells xenografted in nude mouse assessed as reduction in tumor volume at 24 mg/kg, iv administered once weekly measured on day 26 relative to control; format: functional
OS-RC-2 [6] = test: Antitumor activity against human OS-RC2 cells xenografted in nude mouse assessed as reduction in tumor volume at 24 mg/kg, iv administered once weekly measured on day 19 relative to control; format: functional
OS-RC-2 [7] = test: Antitumor activity against human OS-RC2 cells xenografted in nude mouse assessed as reduction in tumor volume at 24 mg/kg, iv administered once weekly measured on day 29 relative to control; format: functional
Mus musculus [8] = test: Toxicity in nude mouse xenografted with human OS-RC-2 cells assessed as body weight loss at 24 mg/kg, iv administered once weekly measured on day 5 (reference value: 1.9%); format: organism-based; details: in vivo
Mus musculus [9] = test: Toxicity in nude mouse xenografted with human OS-RC2 cells assessed as body weight loss at 24 mg/kg, iv administered once weekly measured on day 12 (reference value: 15 %); format: organism-based; details: in vivo
Blood [10] = test: Prodrug conversion in Sprague-Dawley rat blood assessed as everolimus level at 2.724 mg/kg, iv at 1 hr post dose by HPLC method; format: ADME, organism-based; details: in vivo
Mus musculus [11] = test: Toxicity in nude mouse xenografted with human OS-RC2 cells assessed as body weight loss at 24 mg/kg, iv administered once weekly measured on day 26 (reference value: 28.2 %); format: organism-based; details: in vivo
Mus musculus [12] = test: Toxicity in nude mouse xenografted with human OS-RC2 cells assessed as body weight loss at 1.5 mg/kg administered three times a week intravenously and measured on Day 5 (reference value: 1.9 %); format: organism-based; details: in vivo, iv
Mus musculus [13] = test: Toxicity in nude mouse xenografted with human OS-RC2 cells assessed as body weight loss at 24 mg/kg, iv administered once weekly measured on day 8 (reference value: 8.5 %); format: organism-based; details: in vivo
Blood [14] = test: Prodrug conversion in Sprague-Dawley rat blood assessed as everolimus level at 2.724 mg/kg, iv at 2 hrs post dose by HPLC method; format: ADME, organism-based; details: in vivo
MDA-MB-435 = test: Antiproliferative activity against human MDA-MB-435 cells after 48 hrs by MTT assay; format: functional, cell-based; details: MDA-MB-435, 48 h
Mus musculus [15] = test: Toxicity in nude mouse xenografted with human OS-RC2 cells assessed as body weight loss at 1.5 mg/kg, iv administered three times a week measured on Day 15 (reference value: 20.2 %); format: organism-based; details: in vivo
OS-RC-2 [16] = test: Antitumor activity against human OS-RC2 cells xenografted in nude mouse assessed as reduction in tumor volume at 1.5 mg/kg, iv administered three times a week measured on day 12 relative to control; format: functional
Mus musculus [17] = test: Toxicity in nude mouse xenografted with human OS-RC-2 cells assessed as death at 1.5 mg/kg, iv administered three times a week measured after 32 days; format: organism-based; details: in vivo, 768 h
Mus musculus [18] = test: Toxicity in nude mouse xenografted with human OS-RC2 cells assessed as body weight loss at 24 mg/kg, iv administered once weekly measured on day 29 (reference value: 31.2 %); format: organism-based; details: in vivo
Blood [19] = test: Prodrug conversion in Sprague-Dawley rat blood assessed as everolimus level at 2.724 mg/kg, iv at 0.0833 hrs post dose by HPLC method; format: ADME, organism-based; details: in vivo, 5 min
DU-145 = test: Antiproliferative activity against human DU145 cells after 48 hrs by MTT assay; format: functional, cell-based; details: DU-145, 48 h
OS-RC-2 [20] = test: Antitumor activity against human OS-RC2 cells xenografted in nude mouse assessed as tumor weight at 1.5 mg/kg, iv administered three times a week measured after 32 days (reference value: 0.68 +/- 0.06 g); format: functional
[21] = Tmax in Sprague-Dawley rat at 2.724 mg/kg, iv; format: ADME, organism-based; details: in vivo
OS-RC-2 [22] = test: Antitumor activity against human OS-RC2 cells xenografted in nude mouse assessed as reduction in tumor volume at 1.5 mg/kg, iv administered three times a week measured on day 19 relative to control; format: functional
OS-RC-2 [23] = test: Antitumor activity against human OS-RC2 cells xenografted in nude mouse assessed as reduction in tumor volume at 24 mg/kg, iv administered once weekly measured on day 12 relative to control; format: functional
Blood [24] = test: Prodrug conversion in Sprague-Dawley rat blood assessed as everolimus level at 2.724 mg/kg, iv at 1.5 hrs post dose by HPLC method; format: ADME, organism-based; details: in vivo
OS-RC-2 [25] = test: Antitumor activity against human OS-RC2 cells xenografted in nude mouse assessed as reduction in tumor volume at 1.5 mg/kg, iv administered three times a week measured on day 29 relative to control; format: functional
[26] = AUC (0 to infinity) in Sprague-Dawley rat at 2.724 mg/kg, iv; format: ADME, organism-based; parameters: dose 2.724 mg/kg, route intravenous, time infinity; details: in vivo
Mus musculus [27] = test: Toxicity in nude mouse xenografted with human OS-RC-2 cells assessed as body weight at 1.5 mg/kg, iv administered three times a week measured on day 1 (reference value: 20.4 +/- 0.33 g); format: organism-based; details: in vivo
Blood [28] = test: Prodrug conversion in Sprague-Dawley rat blood assessed as everolimus level at 2.724 mg/kg, iv at 0.5 hrs post dose by HPLC method; format: ADME, organism-based; details: in vivo
Mus musculus [29] = test: Toxicity in nude mouse xenografted with human OS-RC2 cells assessed as body weight loss at 24 mg/kg, iv administered once weekly measured on day 19 (reference value: 23.1 %); format: organism-based; details: in vivo
Mus musculus [30] = test: Toxicity in nude mouse xenografted with human OS-RC-2 cells assessed as body weight loss at 24 mg/kg, iv administered once weekly measured after 32 days (reference value: 33%); format: organism-based; details: in vivo, 768 h
OS-RC-2 [31] = test: Antitumor activity against human OS-RC2 cells xenografted in nude mouse assessed as reduction in tumor volume at 24 mg/kg, iv administered once weekly measured on day 5 relative to control; format: functional
Mus musculus [32] = test: Toxicity in nude mouse xenografted with human OS-RC2 cells assessed as body weight loss at 1.5 mg/kg administered three times a week intravenously and measured on Day 22 (reference value: 23.1 %); format: organism-based; details: in vivo, iv
HepG2 = test: Antiproliferative activity against human HepG2 cells after 48 hrs by MTT assay; format: functional, cell-based; details: HepG2, 48 h
OS-RC-2 [33] = test: Antitumor activity against human OS-RC2 cells xenografted in nude mouse assessed as reduction in tumor volume at 1.5 mg/kg, iv administered three times a week measured on day 32 relative to control; format: functional
Mus musculus [34] = test: Toxicity in nude mouse xenografted with human OS-RC2 cells assessed as body weight loss at 1.5 mg/kg administered three times a week intravenously and measured on Day 29 (reference value: 31.2 %); format: organism-based; details: in vivo, iv

SMILES: CO[C@H]1C[C@@H]2CC[C@@H](C)[C@@](O)(O2)C(=O)C(=O)N2CCCC[C@H]2C(=O)O[C@H]([C@H](C)C[C@@H]2CC[C@@H](OCCOC(=O)CSC[C@H](NC(=O)CC[C@H](N)C(=O)O)C(=O)NCC(=O)O)[C@H](OC)C2)CC(=O)[C@H](C)/C=C(\C)[C@@H](O)[C@@H](OC)C(=O)[C@H](C)C[C@H](C)\C=C/C=C/C=C/1C
- half-life [1]: 2.3 h
- Drug metabolism (Blood [2]): 13.8243 ng/mL
- Activity (OS-RC-2 [3]): 167.6 mm3
- Drug metabolism (Blood [4]): Metabolite_Detected
- T/C (OS-RC-2 [5]): 0.55%
- T/C (OS-RC-2 [6]): 0.49%
- T/C (OS-RC-2 [7]): 0.54%
- Activity (Mus musculus [8]): 6.2%
- Activity (Mus musculus [9]): 6.3%
- Drug metabolism (Blood [10]): 73.5532 ng/mL
- Activity (Mus musculus [11]): 10.2%
- Activity (Mus musculus [12]): 6.8%
- Activity (Mus musculus [13]): 5.3%
- Drug metabolism (Blood [14]): 28.155 ng/mL
- IC50 (MDA-MB-435): 55.3 µM
- Activity (Mus musculus [15]): 12%
- T/C (OS-RC-2 [16]): 0.6%
- Activity (Mus musculus [17]): Non-Toxic
- Activity (Mus musculus [18]): 10.5%
- Drug metabolism (Blood [19]): 8421.1173 ng/mL
- IC50 (DU-145): 56.2 µM
- Activity (OS-RC-2 [20]): 0.29 g
- Tmax [21]: 4.98 min
- T/C (OS-RC-2 [22]): 0.57%
- T/C (OS-RC-2 [23]): 0.47%
- Drug metabolism (Blood [24]): 40.4142 ng/mL
- T/C (OS-RC-2 [25]): 0.54%
- AUC(0-inf) [26]: 2.51 µg·h/mL
- Activity (Mus musculus [27]): 20.67 g
- Drug metabolism (Blood [28]): 326.1655 ng/mL
- Activity (Mus musculus [29]): 10.2%
- Activity (Mus musculus [30]): 10.7%
- T/C (OS-RC-2 [31]): 0.55%
- Activity (Mus musculus [32]): 11.5%
- IC50 (HepG2): 11.1 µM
- T/C (OS-RC-2 [33]): 0.52%
- Activity (Mus musculus [34]): 11.5%
